Results published in ChEMBL document CHEMBL3045969, “Synthesis and evaluation of some new 4-aminopyridine derivatives as a potent antiamnesic and cognition enhancing drugs” (Med Chem Res, 2012).

Key:
Rattus norvegicus [1] = experiment: Antiamnesic activity in scopolamine-induced amnesia Charles Foster albino Rattus norvegicus (rat) model assessed as transfer latency time at 5 mg/kg, po qd for 7 days measured 1 hr post last dose on day 7 by elevated plus maze test; format: functional
Rattus norvegicus [2] = experiment: Cognition enhancing activity in Charles Foster albino Rattus norvegicus (rat) assessed as transfer latency time at 5 mg/kg, po qd for 7 days measured 1 hr post last dose on day 7 by elevated plus maze test; format: functional
Rattus norvegicus [3] = experiment: (§1) Inhibition of AChE in Charles Foster albino Rattus norvegicus (rat) assessed as hydrolysis of acetylthiocholine iodide per mg of protein in prefrontal cortex at 10 mg/kg, po qd for 7 days measured 1 hr post last dose on day 7 by spectrophotometry (reference value: […]/mg protein); format: functional
Rattus norvegicus [4] = experiment: as §1, with “AChE in po dosed Charles Foster” for “AChE in Charles Foster”, “prefrontal cortex administered qd for” for “prefrontal cortex at 10 mg/kg, po qd for”; format: functional, organism-based
Rattus norvegicus [5] = experiment: Cognition enhancing activity in Charles Foster albino Rattus norvegicus (rat) assessed as transfer latency time at 10 mg/kg, po qd for 7 days measured 1 hr post last dose on day 7 by elevated plus maze test; format: functional
Rattus norvegicus [6] = experiment: (§2) Inhibition of AChE in Charles Foster albino Rattus norvegicus (rat) assessed as hydrolysis of acetylthiocholine iodide per mg of protein in hypothalamus at 5 mg/kg, po qd for 7 days measured 1 hr post last dose on day 7 by spectrophotometry (reference value: […]/mg protein); format: functional
Rattus norvegicus [7] = experiment: (§3) Inhibition of AChE in Charles Foster albino Rattus norvegicus (rat) assessed as hydrolysis of acetylthiocholine iodide per mg of protein in hippocampus at 5 mg/kg, po qd for 7 days measured 1 hr post last dose on day 7 by spectrophotometry (reference value: […]/mg protein); format: functional
Rattus norvegicus [8] = experiment: Acute toxicity in Charles Foster albino Rattus norvegicus (rat) assessed as mortality at >35 mg/kg of body weight, po measured up to 24 hr; format: organism-based; details: in vivo
Rattus norvegicus [9] = experiment: Inhibition of AChE in Charles Foster albino Rattus norvegicus (rat) assessed as hydrolysis of acetylthiocholine iodide per mg of protein in hypothalamus at 10 mg/kg, po qd for 7 days measured 1 hr post last dose on day 7 by spectrophotometry (reference value: […]/mg protein); format: functional
Rattus norvegicus [10] = experiment: Antiamnesic activity in po dosed scopolamine-induced amnesia Charles Foster albino Rattus norvegicus (rat) model assessed as transfer latency time administered once daily for 8 days measured 1 hr post last dose on day 8 by elevated plus maze test; format: functional, organism-based
Rattus norvegicus [11] = experiment: as §2, with “AChE in po dosed Charles Foster” for “AChE in Charles Foster”, “in hypothalamus administered qd for” for “in hypothalamus at 5 mg/kg, po qd for”; format: functional, organism-based
Rattus norvegicus [12] = experiment: Cognition enhancing activity in Charles Foster albino Rattus norvegicus (rat) assessed as transfer latency time at 10 mg/kg, po qd for 8 days measured 1 hr post last dose on day 8 by elevated plus maze test; format: functional
Rattus norvegicus [13] = experiment: Antiamnesic activity in scopolamine-induced amnesia Charles Foster albino Rattus norvegicus (rat) model assessed as transfer latency time at 10 mg/kg, po qd for 8 days measured 1 hr post last dose on day 8 by elevated plus maze test; format: functional
Rattus norvegicus [14] = experiment: Inhibition of AChE in Charles Foster albino Rattus norvegicus (rat) assessed as hydrolysis of acetylthiocholine iodide per mg of protein in hippocampus at 10 mg/kg, po qd for 7 days measured 1 hr post last dose on day 7 by spectrophotometry (reference value: […]/mg protein); format: functional
Rattus norvegicus [15] = experiment: Cognition enhancing activity in Charles Foster albino Rattus norvegicus (rat) assessed as transfer latency time at 5 mg/kg, po qd for 8 days measured 1 hr post last dose on day 8 by elevated plus maze test; format: functional
Rattus norvegicus [16] = experiment: Inhibition of AChE in Charles Foster albino Rattus norvegicus (rat) assessed as hydrolysis of acetylthiocholine iodide per mg of protein in prefrontal cortex at 5 mg/kg, po qd for 7 days measured 1 hr post last dose on day 7 by spectrophotometry (reference value: […]/mg protein); format: functional
Rattus norvegicus [17] = experiment: Antiamnesic activity in scopolamine-induced amnesia Charles Foster albino Rattus norvegicus (rat) model assessed as transfer latency time at 5 mg/kg, po qd for 8 days measured 1 hr post last dose on day 8 by elevated plus maze test; format: functional
Rattus norvegicus [18] = experiment: Antiamnesic activity in scopolamine-induced amnesia Charles Foster albino Rattus norvegicus (rat) model assessed as transfer latency time at 10 mg/kg, po qd for 7 days measured 1 hr post last dose on day 7 by elevated plus maze test; format: functional
Rattus norvegicus [19] = experiment: as §3, with “AChE in po dosed Charles Foster” for “AChE in Charles Foster”, “in hippocampus administered po qd” for “in hippocampus at 5 mg/kg, po qd”; format: functional, organism-based
Rattus norvegicus [20] = experiment: Antiamnesic activity in scopolamine-induced amnesia Charles Foster albino Rattus norvegicus (rat) model assessed as transfer latency time at 200 mg/kg, ip measured after 30 min by elevated plus maze test; format: functional; details: route intraperitoneal
Rattus norvegicus [21] = experiment: Cognition enhancing activity in Charles Foster albino Rattus norvegicus (rat) at 200 mg/kg, ip measured 30 min post dose by elevated plus maze test; format: functional; details: route intraperitoneal
Rattus norvegicus [22] = experiment: Cognition enhancing activity in Charles Foster albino Rattus norvegicus (rat) assessed as transfer latency time at 200 mg/kg, ip for 2 days measured 1 hr post last dose on day 2 by elevated plus maze test; format: functional; details: route intraperitoneal
Rattus norvegicus [23] = experiment: Antiamnesic activity in scopolamine-induced amnesia Charles Foster albino Rattus norvegicus (rat) model assessed as transfer latency time at 200 mg/kg, ip ip for 2 days measured 1 hr post last dose on day 2 by elevated plus maze test; format: functional; details: route intraperitoneal

Structure (SMILES)	Time (Rattus norvegicus [1]) [s]	Time (Rattus norvegicus [2]) [s]	Activity (Rattus norvegicus [3]) [nmol/min]	inhibition (Rattus norvegicus [4])	Time (Rattus norvegicus [5]) [s]	Activity (Rattus norvegicus [6]) [nmol/min]	Activity (Rattus norvegicus [7]) [nmol/min]	Activity (Rattus norvegicus [8])	Activity (Rattus norvegicus [9]) [nmol/min]	Activity (Rattus norvegicus [10])	inhibition (Rattus norvegicus [11])	Time (Rattus norvegicus [12]) [s]	Time (Rattus norvegicus [13]) [s]	Activity (Rattus norvegicus [14]) [nmol/min]	Time (Rattus norvegicus [15]) [s]	Activity (Rattus norvegicus [16]) [nmol/min]	Time (Rattus norvegicus [17]) [s]	Time (Rattus norvegicus [18]) [s]	inhibition (Rattus norvegicus [19])	also measured
Oc1ccccc1/C=N\c1ccncc1	53.5	59.83	33	Dose-dependent effect	52.17	34.33	41.83	Non-toxic	30.5	Dose-dependent effect	Dose-dependent effect	42.5	42.5	36.83	50.17	37.5	50.17	48.17	Dose-dependent effect	–
COc1ccc(/C=N\c2ccncc2)cc1	52	57.83	31	Dose-dependent effect	52.67	35.67	41.5	Non-toxic	30.83	Dose-dependent effect	Dose-dependent effect	46.33	43.17	36.5	49.5	36	50.83	48.67	Dose-dependent effect	–
C(=N/c1ccncc1)/c1ccccc1	53.83	59.67	33.83	Dose-dependent effect	52.5	29.33	43.83	Non-toxic	35.5	Dose-dependent effect	Dose-dependent effect	47.17	42.67	36.83	51.83	39	51.5	48.83	Dose-dependent effect	–
Oc1ccc(/C=N\c2ccncc2)c(O)c1	51.67	60.33	30.5	Dose-dependent effect	52.5	34.5	42.83	Non-toxic	30	Dose-dependent effect	Dose-dependent effect	48.67	43	34.83	51.17	41	51.67	46.5	Dose-dependent effect	–
C/C(=N/c1ccncc1)c1ccc(O)cc1	53.17	59.83	33	Dose-dependent effect	50.83	35.17	40.5	Non-toxic	29.67	Dose-dependent effect	Dose-dependent effect	46.83	41.67	36.5	56.17	39.33	50.67	47	Dose-dependent effect	–
c1ccc(C(=Nc2ccncc2)c2ccccc2)cc1	46.83	49.17	32.83	Dose-dependent effect	46.83	34.67	42.17	Non-toxic	29.67	Dose-dependent effect	Dose-dependent effect	40.17	41.17	37.5	44	37	41.83	45.67	Dose-dependent effect	–
NC(=O)CN1CCCC1=O [PIRACETAM]	–	–	–	–	–	–	–	–	–	–	–	–	–	–	–	–	–	–	–	Time (Rattus norvegicus [20]): 47 s; Time (Rattus norvegicus [21]): 49.5 s; Time (Rattus norvegicus [22]): 45.67 s; Time (Rattus norvegicus [23]): 43.33 s
COc1ccc(/C=N\c2ccncc2)cc1OC	53.83	58	33.17	Dose-dependent effect	53	35.5	41.17	Non-toxic	30.5	Dose-dependent effect	Dose-dependent effect	47.5	42.5	35.83	50.33	36.5	50.67	48.5	Dose-dependent effect	–
